{
  "source": "patent US20230072421A1",
  "about": "“TARGETED RADIOPHARMACEUTICALS FOR THE DIAGNOSIS AND TREATMENT OF PROSTATE CANCER” (Bayer AS, priority 2019, published 2023)",
  "key": {"[1]": {"test": "Biodistribution study in LNCaP tumor-bearing mice (Th227 counted in organs)", "assay_type": "in vivo, SCID mice", "conditions": "500 kBq/kg; for Th-227 in Blood / Th-227 in Femur bone / Th-227 in Kidneys / Th-227 in Liver / Th-227 in Spleen / Th-227 in Tumor / Th-227 in salivary glands: study b3004", "procedure": "(§1) SCID mice were randomly assigned to experimental groups, ten animals per group (efficacy) or n=3-5 per time point of biodistribution study. At the initiation of the study, a testosterone pellet was subcutaneously transplanted, the animals were shaved, tattooed and each cage was labeled with the cage number, study number and number of animals per cage.\n(§2) LNCaP human prostate cancer cells were cultured as described according to the supplier's protocols. Cells were harvested for transplantation in a subconfluent (70%) state. Animals were injected with 5×10^6 LNCaP cells suspended in 100% Matrigel subcutaneously into the flank of the mice.\nBiodistribution study: When tumors reached a predetermined size in mice of ˜50 mm^2 animals were randomized into groups (n=3 animals/time point) and the radioactive compound was once applied intravenously. The i.v. application volume was 100 μl/mice.\nAt the predetermined time point, n=3 animals were sacrificed, the organs removed, weight and measured in a Germanium detector to count the Th227 in the sample."}, "[2]": {"system": "LNCaP human prostate cancer cells", "test": "LNCaP xenograft efficacy study (T/C tumor area)", "assay_type": "in vivo, SCID mice", "procedure": "as §1, §2\nEfficacy study: When tumors reached a predetermined size in mice of 35-50 mm^2 animals were randomized into treatment and control groups (n=10 animals/group) and treatment with the defined radioactive dose was started. The i.v. application volume was 100 μl/mice.\nTumor response was assessed by determination of the tumor area (product of the longest diameter and its perpendicular) using a caliper. The animal body weight was monitored as a measure for treatment-related toxicity. Measurement of tumor area and body weight was performed two to three times weekly.\nAnimals were sacrificed when showing signs of toxicity (>20% body weight loss) or when tumors reached a size of approximately 200 mm^2.\nTumor growth inhibition is presented as T/C ratio (Treatment/Control) calculated with tumor areas when the vehicle control group had to be closed."}, "22Rv1 cells": {"system": "22Rv1 cells", "test": "Cell proliferation assay (CellTiter-Glo, 5-day exposure), 22Rv1", "assay_type": "cell-based", "conditions": "22Rv1, 1000 cells/well, Th-227 labelled at 375 kBq/nmol, mean of 1 to 6 experiments", "procedure": "(§3) Inhibition of cell proliferation of Thorium-227 labeled PMSA SMOL ligands was tested different prostate cancer cell lines, namely 22Rv1, VCaP, C4-2 (all from ATCC, Manassas, Va., USA) and LNCaP (DMSZ, Braunschweig). Cells were seeded using the following conditions in 384 well plates (Corning) in 30 μl of growth media at 4000 cells/well for VCaP cells and 1000 cells/well for 22Rv1, C4-2 and LNCaP cells.\n(§4) Cells were cultivated an incubator at 37° C. and 5% C02 over night. […] In sister plates cell viability at treatment start (d=0) was determined using CellTiter-Glo® assay (CTG, Promega, Madison, Wis., USA), by adding 30 μl per well CTG solution, incubation for 10 min and reading of Luminescence in a PheraStarFSX instrument (BMG Labtech). After a 5-day exposure in the presenced of test compounds, cell viability of treated or untreated control cells was determined again using CellTiter-Glo® assay (Promega, Madison, Wis., USA). […] The DRC software is a Biobook Spreadsheet that was developed by Bayer AG and Bayer Business Services on the IDBS E-Workbook Suite platform (IDBS: ID Business Solutions Ltd., Guildford, UK)."}, "VCaP cells": {"system": "VCaP cells", "test": "Cell proliferation assay (CellTiter-Glo, 5-day exposure), VCaP", "assay_type": "cell-based", "conditions": "4000 cells/well, Th-227 labelled at 375 kBq/nmol, mean of 1 to 6 experiments", "procedure": "as §3, §4"}, "C4-2 cells": {"system": "C4-2 cells", "test": "Cell proliferation assay (CellTiter-Glo, 5-day exposure), C4-2", "assay_type": "cell-based", "conditions": "C4-2, 1000 cells/well, Th-227 labelled at 375 kBq/nmol, mean of 1 to 6 experiments", "procedure": "as §3, §4"}, "[3]": {"conditions": "comparison of % injected dose per gram tissue"}},
  "data": [
    {"smiles": "Cc1cc(C(=O)NCCN(CCCN(CCNC(=O)c2cc(C)n(CC(=O)O)c(=O)c2[O-])CCNC(=O)c2cc(C)n(CC(=O)NCC3CCC(C(=O)NC(Cc4ccc5ccccc5c4)C(=O)NCCCCC(NC(=O)NC(CCC(=O)O)C(=O)O)C(=O)O)CC3)c(=O)c2[O-])CCNC(=O)c2cc(C)n(CC(=O)NCC3CCC(C(=O)NC(Cc4ccc5ccccc5c4)C(=O)NCCCCC(NC(=O)NC(CCC(=O)O)C(=O)O)C(=O)O)CC3)c(=O)c2[O-])c([O-])c(=O)n1CC(=O)O.[227Th+4]", "note": "(stereo not shown) [1-C dimer-227Th]", "values": [
      {"measurement": "Accumulation in the tumor (in words)", "setting": "[1]; [3]", "value": "much higher accumulation in the tumor"},
      {"measurement": "Background in blood, liver and spleen (in words)", "setting": "[1]; [3]", "value": "lower background compared to 1-F-227Th"},
      {"measurement": "Th-227 in Blood", "setting": "[1]; 1 h", "value": 0.90, "unit": "% ID Th-227/g organ"},
      {"measurement": "Th-227 in Femur bone", "setting": "[1]; 1 h", "value": 1.39, "unit": "% ID Th-227/g organ"},
      {"measurement": "Th-227 in Kidneys", "setting": "[1]; 1 h", "value": 120.74, "unit": "% ID Th-227/g organ"},
      {"measurement": "Th-227 in Liver", "setting": "[1]; 1 h", "value": 1.49, "unit": "% ID Th-227/g organ"},
      {"measurement": "Th-227 in Spleen", "setting": "[1]; 1 h", "value": 2.33, "unit": "% ID Th-227/g organ"},
      {"measurement": "Th-227 in Tumor", "setting": "[1]; 1 h", "value": 19.99, "unit": "% ID Th-227/g organ"},
      {"measurement": "Th-227 in salivary glands", "setting": "[1]; 1 h", "value": 5.02, "unit": "% ID Th-227/g organ"},
      {"measurement": "Th-227 in Blood", "setting": "[1]; 24 h", "value": 0.07, "unit": "% ID Th-227/g organ"},
      {"measurement": "Th-227 in Femur bone", "setting": "[1]; 24 h", "value": 1.65, "unit": "% ID Th-227/g organ"},
      {"measurement": "Th-227 in Kidneys", "setting": "[1]; 24 h", "value": 102.45, "unit": "% ID Th-227/g organ"},
      {"measurement": "Th-227 in Liver", "setting": "[1]; 24 h", "value": 1.34, "unit": "% ID Th-227/g organ"},
      {"measurement": "Th-227 in Spleen", "setting": "[1]; 24 h", "value": 1.50, "unit": "% ID Th-227/g organ"},
      {"measurement": "Th-227 in Tumor", "setting": "[1]; 24 h", "value": 14.49, "unit": "% ID Th-227/g organ"},
      {"measurement": "Th-227 in salivary glands", "setting": "[1]; 24 h", "value": 1.39, "unit": "% ID Th-227/g organ"},
      {"measurement": "Th-227 in Blood", "setting": "[1]; 72 h", "value": 0.01, "unit": "% ID Th-227/g organ"},
      {"measurement": "Th-227 in Femur bone", "setting": "[1]; 72 h", "value": 1.25, "unit": "% ID Th-227/g organ"},
      {"measurement": "Th-227 in Kidneys", "setting": "[1]; 72 h", "value": 2.10, "unit": "% ID Th-227/g organ"},
      {"measurement": "Th-227 in Liver", "setting": "[1]; 72 h", "value": 1.02, "unit": "% ID Th-227/g organ"},
      {"measurement": "Th-227 in Spleen", "setting": "[1]; 72 h", "value": 0.76, "unit": "% ID Th-227/g organ"},
      {"measurement": "Th-227 in Tumor", "setting": "[1]; 72 h", "value": 8.99, "unit": "% ID Th-227/g organ"},
      {"measurement": "Th-227 in salivary glands", "setting": "[1]; 72 h", "value": 0.77, "unit": "% ID Th-227/g organ"},
      {"measurement": "Th-227 in Blood", "setting": "[1]; 168 h", "value": 0.01, "unit": "% ID Th-227/g organ"},
      {"measurement": "Th-227 in Femur bone", "setting": "[1]; 168 h", "value": 1.76, "unit": "% ID Th-227/g organ"},
      {"measurement": "Th-227 in Kidneys", "setting": "[1]; 168 h", "value": 17.42, "unit": "% ID Th-227/g organ"},
      {"measurement": "Th-227 in Liver", "setting": "[1]; 168 h", "value": 1.28, "unit": "% ID Th-227/g organ"},
      {"measurement": "Th-227 in Spleen", "setting": "[1]; 168 h", "value": 1.24, "unit": "% ID Th-227/g organ"},
      {"measurement": "Th-227 in Tumor", "setting": "[1]; 168 h", "value": 8.68, "unit": "% ID Th-227/g organ"},
      {"measurement": "Th-227 in salivary glands", "setting": "[1]; 168 h", "value": 1.17, "unit": "% ID Th-227/g organ"},
      {"measurement": "Th-227 in Blood", "setting": "[1]; 336 h", "value": 0.00, "unit": "% ID Th-227/g organ"},
      {"measurement": "Th-227 in Femur bone", "setting": "[1]; 336 h", "value": 1.55, "unit": "% ID Th-227/g organ"},
      {"measurement": "Th-227 in Kidneys", "setting": "[1]; 336 h", "value": 5.40, "unit": "% ID Th-227/g organ"},
      {"measurement": "Th-227 in Liver", "setting": "[1]; 336 h", "value": 1.06, "unit": "% ID Th-227/g organ"},
      {"measurement": "Th-227 in Spleen", "setting": "[1]; 336 h", "value": 0.73, "unit": "% ID Th-227/g organ"},
      {"measurement": "Th-227 in Tumor", "setting": "[1]; 336 h", "value": 2.85, "unit": "% ID Th-227/g organ"},
      {"measurement": "Th-227 in salivary glands", "setting": "[1]; 336 h", "value": 1.20, "unit": "% ID Th-227/g organ"},
      {"measurement": "T/Carea", "setting": "[2]; Example II, day 33 after start of therapy, 375 kBq/kg weekly for 5 weeks", "value": 0.60},
      {"measurement": "T/Carea", "setting": "[2]; Example II, day 33 after start of therapy, 750 kBq/kg weekly for 5 weeks", "value": 0.34},
      {"measurement": "T/Carea", "setting": "[2]; Example IV, day 36 after start of therapy, once 1 MBq/kg", "value": 0.48},
      {"measurement": "Proliferation assay on cancer cell lines by TTCs Default Pivot #3 IC50 [kBq/mL] 22Rv1 1000cells 375kBq/nmol (mean)", "setting": "22Rv1 cells", "value": 1.04, "unit": "kBq/mL"},
      {"measurement": "Proliferation assay on cancer cell lines by TTCs Default Pivot #3 IC50 [kBq/mL] VCap 4000cells 375kBq/nmol (mean)", "setting": "VCaP cells", "value": 1.55, "unit": "kBq/mL"},
      {"measurement": "Proliferation assay on cancer cell lines by TTCs Default Pivot #3 IC50 [kBq/mL] C4-2 1000cells 375kBq/nmol (mean)", "setting": "C4-2 cells", "value": 1.12, "unit": "kBq/mL"}
    ]}
  ]
}
